In data set [1] the target is T1, c-Met (Homo sapiens, UniProt P08581). Nature of the data set: Delfia autophosphorylation kinase assay on the c-Met. The data set is classed as biochemical. As to conditions: His6 tagged cytoplasmic domain of c-Met, 1 μM ATP; read-out: c-Met Delfia Autophos IC50. More on the design: The purified His6 tagged cytoplasmic domain of c-Met was diluted to a concentration of 500 ng/ml; made in house; host or cells: Sf9 insect cells with recombinant baculovirus; Large-scale expression and purification were done by the contract lab Pan Vera. The method, then:
This example describes the cloning, expression, and purification of the cytoplasmic domain of c-Met which has the c-Met receptor tyrosine kinase activity.
A DELFIA time resolved fluorescence assay was developed for screening of compounds that decreases the autophosphorylation thus the kinase activity of c-Met.
The DELFIA assay is non-radioactive. The autophophorylation of the c-Met is measured by an anti-phosphotyrosine antibody coupled to an Europium tag.
A major advantage of this format is that it allowed for the development of an autophosphorylation assay using Ni-chelate plates which bind the hexa-his tag on the recombinant Met kinase. Autophosphorylation assay allows to use a known substrate, Met kinase itself, for the phosphorylation. The DELFIA Met autophosphorylation assay is very sensitive with a signal to noise ratio in excess of 50:1.
The assay procedure for screening is as follows. The purified His6 tagged cytoplasmic domain of c-Met was diluted to a concentration of 500 ng/ml in enzyme dilution buffer (50 mM Tris-HCl, pH8.0, 0.1% BSA) and dispensed to assay plates at a volume of 50 μl per well. Black opaque HisGrab Nickel coated 96 well plates (Pierce, Rockford, Ill.) were selected to run the assay. Next, 2.5 μl of compound in 40% DMSO was added to test wells, 2.5 μl of 40% DMSO only was added to the negative control wells. The autophosphorylation reaction was initiated upon the addition of 50 μl of reaction buffer, 50 mM Tris-HCl, pH 8.0, 10 mM MgCl2, 0.1 mM Na3VO4, 1 mM DTT, 1 μM ATP. Plates were incubated at room temperature for 1 hour followed by 2 washes with 200 μl/well of PBS. Europium conjugated anti-phosphotyrosine antibody, Eu-PY20 from Perkin Elmer was diluted to 50 ng/ml in Delfia AB buffer (Perkin Elmer, Boston, Mass.), added to the 96 well assay plates at a volume of […], and incubated at room temperature for 2 hours. Assay plates were then washed 4 times each with 200 μl/well of Delfia wash buffer (Perkin Elmer). After the final wash 150 μl of Delfia Enhancement solution (Perkin Elmer) was added to each well of the assay plate and incubated at room temperature for 1 hour. Plates were read on an LJL Analyst instrument (Molecular Devices; Sunnyvale, Calif.) with filter settings of 360 excitation, 620 emission, and 410 dichroic. IC50 values were calculated using Graphpad Prism software (Graphpad Software; San Diego, Calif.).
Target sequence in this assay (P08581 956-1390 limits assumed): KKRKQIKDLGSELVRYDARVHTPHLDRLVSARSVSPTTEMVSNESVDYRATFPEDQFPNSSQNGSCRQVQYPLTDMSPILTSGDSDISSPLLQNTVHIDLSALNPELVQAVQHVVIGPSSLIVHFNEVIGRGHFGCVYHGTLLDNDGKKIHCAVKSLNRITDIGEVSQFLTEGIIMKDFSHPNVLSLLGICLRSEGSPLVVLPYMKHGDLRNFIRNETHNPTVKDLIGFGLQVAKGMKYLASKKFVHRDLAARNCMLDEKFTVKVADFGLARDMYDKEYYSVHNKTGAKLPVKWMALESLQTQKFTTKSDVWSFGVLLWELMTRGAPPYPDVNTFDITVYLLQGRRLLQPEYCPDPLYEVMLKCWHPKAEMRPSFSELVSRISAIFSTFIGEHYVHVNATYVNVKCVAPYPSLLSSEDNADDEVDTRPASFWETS

A short description of the next data set: Aqueous solubility assay. The conditions noted are these: water with 0.4% DMSO, kinetic from dmso stock.
The target of data set [2] is T1, c-Met. Briefly: Fluorescence polarization assay on the kinase activity of c-Met. The data set is classed as biochemical. On the set-up: The c-Met kinase domain consists amino acid 1046-1390 of the c-Met protein; made in house; host or cells: Sf9 insect cells with baculovirus. The conditions noted are these: 6H-TEV-cMet, poly Gly4Tyr substrate, 10 μM ATP; read-out: c-Met FP Enz IC50. The text has this:
A fluorescence polarization assay (FP) was developed for screening of compounds that decreases the kinase activity of c-Met.
A protein (6H-TEV-cMet) comprising c-Met kinase domain was cloned, recombinantly expressed and purified following a procedure similar to that as described in Example A. The protein comprises a His tag consisting of six histidines at its N-terminal, a TEV protease cleavage site, and the c-Met kinase domain. The c-Met kinase domain consists amino acid 1046-1390 of the c-Met protein as listed in GenBank protein accession number P08581.
For the c-Met kinase assay, the 6H-TEV-cMet was used as the enzyme, and a poly Gly4Tyr peptide (Sigma, P-0275) was used as the substrate. The kinase reaction was performed in a volume of 10 μl in HE microplates (LJL Biosystems). Assay conditions were as follows: 100 mM HEPES pH 7.5, 0.01% Tween-20, 1 mM DTT, 5 mM MgCl2, 10 μM ATP, 10 μg/ml poly Gly4Tyr. The kinase reaction was initiated upon addition of 10 nM 6H-TEV-cMet. After a 12 minute incubation at room temperature the reaction was terminated with […] 50 mM EDTA.
Phosphorylation of the peptide substrate was detected with PanVera Tyrosine Kinase Assay Kit, Green reagents (P2837). Five minutes after the addition of EDTA, 10 μl of antibody/tracer mix (Pan Vera reagents, 1:1:3 dilution of antibody: Tracer: FP dilution buffer, Cat. # P2837) was added to each well. Plates were allowed to incubate for 30 minutes at room temperature and fluorescence polarization was measured with an LJL Analyst instrument (Molecular Devices; Sunnyvale, Calif.) with excitation=485 nm filter and emission=530 nm filter. IC50 values were calculated from triplicate sets of data using Graphpad Prism software (Graphpad Software; San Diego, Calif.).
Target sequence in this assay (P08581 1046-1390): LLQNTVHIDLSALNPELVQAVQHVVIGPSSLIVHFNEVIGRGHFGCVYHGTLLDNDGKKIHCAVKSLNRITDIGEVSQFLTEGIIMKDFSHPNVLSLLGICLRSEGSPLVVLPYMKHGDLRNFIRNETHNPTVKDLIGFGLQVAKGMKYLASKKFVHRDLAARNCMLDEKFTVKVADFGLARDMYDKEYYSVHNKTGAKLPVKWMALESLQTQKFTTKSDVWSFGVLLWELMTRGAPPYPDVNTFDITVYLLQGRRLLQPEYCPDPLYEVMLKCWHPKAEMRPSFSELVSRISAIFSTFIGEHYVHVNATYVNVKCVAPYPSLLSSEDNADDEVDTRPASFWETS

In brackets after ≈: the same amount, converted by molar mass. Where a name gives a salt, the structure may show the parent alone.

Procedure for Aqueous solubility assay: Water, PBS and aqueous HCl at pH2 having a final DMSO content of 0.4%, with the final DMSO concentration reaching 40 μM. Samples were placed in the incubator and shaken for 15 minutes.

In the case of `CN1CCN(C(=O)c2cc(Br)c3c(c2)NC(=O)/C3=N\NC(=O)Cc2ccc3c(c2)CCO3)CC1` [Example 2, (2,3-Dihydro-benzofuran-5-yl)-aceticacid[4-bromo-6-(4-methyl-piperazine-1-carbonyl)-2-oxo-1,2-dihydro-indol-3-ylidene]-hydrazide], the half-maximal inhibitory concentration (IC50) on c-Met [1] stood at 10 nM. For the same compound, the solubility at 15 min in the data set “Aqueous solubility assay” is 43.9 µM (≈ 23.1 µg/mL).

With `O=C(Cc1ccc2c(c1)CCO2)N/N=C1\C(=O)Nc2cc(C(=O)NCCCN3CCC[C@@H]3CO)cc(Br)c21` [Example 11, (R)-4-Bromo-3-[(2-2,3-dihydro-benzofuran-5-yl-acetyl)-hydrazono]-2-oxo-2,3-dihydro-1H-indole-6-carboxylic acid [3-(2-hydroxymethyl-pyrrolidin-1-yl)-propyl]-amide], the half-maximal inhibitory concentration (IC50) on c-Met [1] was determined as 0.5 nM. With “4-Bromo-3-[(2-2,3-dihydro-benzofuran-5-yl-acetyl)-hydrazono]-2-oxo-2,3-dihydro-1H-indole-6-carboxylic acid (3-morpholin-4-yl-propyl)-amide [Example 7]”, the IC50 at c-Met [1] was determined as 0.7 nM; at c-Met [2] it was 1 nM.

For the compound `CN1CCN(CCCNC(=O)c2cc(Br)c3c(c2)NC(=O)/C3=N\NC(=O)Cc2ccc3c(c2)CCO3)CC1` [Example 5, 4-Bromo-3-[(2-2,3-dihydro-benzofuran-5-yl-acetyl)-hydrazono]-2-oxo-2,3-dihydro-1H-indole-6-carboxylic acid [3-(4-methyl-piperazin-1-yl)-propyl]-amide], the 50% inhibitory concentration (IC50) at c-Met [1] stood at 1 nM; at c-Met [2], 13 nM. The compound further had a solubility at 15 min in “Aqueous solubility assay” of 38.8 µM (≈ 22.6 µg/mL).

Take `CN(C)CCNC(=O)c1cc(Br)c2c(c1)NC(=O)/C2=N\NC(=O)Cc1ccc2c(c1)CCO2` [Example 8, 4-Bromo-3-[(2-2,3-dihydro-benzofuran-5-yl-acetyl)-hydrazono]-2-oxo-2,3-dihydro-1H-indole-6-carboxylic acid (2-dimethylamino-ethyl)-amide]: the half-maximal inhibitory concentration (IC50) on c-Met [1] came out at 1 nM; at c-Met [2], 10 nM. The solubility at 15 min in “Aqueous solubility assay” was 41.1 µM (≈ 21.1 µg/mL). Turning to `CN1CCN(C(=O)c2cc(Br)c3c(c2)NC(=O)/C3=N\NC(=O)Cc2ccc3occc3c2)CC1` [Example 16, Benzofuran-5-yl-acetic acid [4-bromo-6-(4-methyl-piperazine-1-carbonyl)-2-oxo-1,2-dihydro-indol-3-ylidene]-hydrazide hydrochloride], the IC50 at c-Met [1] came to 65 nM.

For `CN1CCN(C(=O)c2cc(Br)c3c(c2)NC(=O)/C3=N\NC(=O)Cc2ccc3onc(N)c3c2)CC1` [Example 19, (3-Amino-benzo[d]isoxazol-5-yl)-acetic acid [4-bromo-6-(4-methyl-piperazine-1-carbonyl)-2-oxo-1,2-dihydro-indol-3-ylidene]-hydrazide], the IC50 at c-Met [1] amounted to 158 nM.

As to `CN1CCN(CCCNC(=O)c2ccc3c(c2)NC(=O)/C3=N\NC(=O)Cc2ccc3c(c2)CCO3)CC1` [Example 4, 3-[(2-2,3-Dihydro-benzofuran-5-yl-acetyl)-hydrazono]-2-oxo-2,3-dihydro-1H-indole-6-carboxylic acid [3-(4-methyl-piperazin-1-yl)-propyl]-amide], the IC50 on c-Met [1] came out at 28 nM. In “Aqueous solubility assay”, this compound returned a solubility at 15 min of 37.9 µM (≈ 19.1 µg/mL). For the compound `CN1CCN(C(=O)c2cc(Br)c3c(c2)NC(=O)/C3=N\NC(=O)Cc2ccc3ocnc3c2)CC1` [Example 17, Benzooxazol-5-yl-acetic acid [4-bromo-6-(4-methyl-piperazine-1-carbonyl)-2-oxo-1,2-dihydro-indol-3-ylidene]-hydrazide], the 50% inhibitory concentration (IC50) at c-Met [1] turned out to be 656 nM. On the same count and under the same terms, the figure for `O=C(Cc1ccc2c(c1)CCO2)N/N=C1\C(=O)Nc2cc(C(=O)NCCCN3CCC(O)CC3)cc(Br)c21` [Example 12, 4-Bromo-3-[(2-2,3-dihydro-benzofuran-5-yl-acetyl)-hydrazono]-2-oxo-2,3-dihydro-1H-indole-6-carboxylic acid [3-(4-hydroxy-piperidin-1-yl)-propyl]-amide] is 2 nM; for `CN(C)CCCNC(=O)c1cc(Br)c2c(c1)NC(=O)/C2=N\NC(=O)Cc1ccc2c(c1)CCO2` [Example 9, 4-Bromo-3-[(2-2,3-dihydro-benzofuran-5-yl-acetyl)-hydrazono]-2-oxo-2,3-dihydro-1H-indole-6-carboxylic acid (3-dimethylamino-propyl)-amide] it is 5 nM; for `CN(C)CCCNC(=O)c1cc(Br)c2c(c1)NC(=O)/C2=N\NC(=O)Cc1ccc2occc2c1` [Example 14, 3-[(2-Benzofuran-5-yl-acetyl)-hydrazono]-4-bromo-2-oxo-2,3-dihydro-1H-indole-6-carboxylic acid (3-dimethylamino-propyl)-amide] it is 1.6 nM. With `O=C(Cc1ccc2c(c1)CCO2)N/N=C1\C(=O)Nc2cc(C(=O)NCCCN3CC[C@H](O)C3)cc(Br)c21` [Example 13, (S)-4-Bromo-3-[(2-2,3-dihydro-benzofuran-5-yl-acetyl)-hydrazono]-2-oxo-2,3-dihydro-1H-indole-6-carboxylic acid [3-(3-hydroxy-pyrrolidin-1-yl)-propyl]-amide], the IC50 on c-Met [1] was 1 nM. For `O=C(Cc1ccc2c(c1)CCO2)N/N=C1\C(=O)Nc2cc(C(=O)NCCCN3CC[C@@H](O)C3)cc(Br)c21` [Example 10, (R)-4-Bromo-3-[(2-2,3-dihydro-benzofuran-5-yl-acetyl)-hydrazono]-2-oxo-2,3-dihydro-1H-indole-6-carboxylic acid [3-(3-hydroxy-pyrrolidin-1-yl)-propyl]-amide], the half-inhibitory concentration (IC50) on c-Met [1] came to 0.7 nM. In the case of `O=C(Cc1ccc2c(c1)CCO2)N/N=C1\C(=O)Nc2cc(C(=O)NCCCO)cc(Br)c21` [Example 15, 4-Bromo-3-[(2-2,3-dihydro-benzofuran-5-yl-acetyl)-hydrazono]-2-oxo-2,3-dihydro-1H-indole-6-carboxylic acid (3-hydroxy-propyl)-amide], the half-maximal inhibitory concentration (IC50) at c-Met [1] is 1 nM. Consider `CN1CCN(C(=O)c2cc(Br)c3c(c2)NC(=O)/C3=N\NC(=O)Cc2ccc3sccc3c2)CC1` [Example 18, Benzothiophen-5-yl-acetic acid [4-bromo-6-(4-methyl-piperazine-1-carbonyl)-2-oxo-1,2-dihydro-indol-3-ylidene]-hydrazide hydrochloride], for which, on c-Met [1], the half-inhibitory concentration (IC50) is 4700 nM.

`O=C(Cc1ccc2c(c1)CCO2)N/N=C1/C(=O)Nc2cc(C(=O)NCCCN3CCC[C@H]3CO)cc(Br)c21` [Example 1, (S)-4-Bromo-3-[(2-2,3-dihydro-benzofuran-5-yl-acetyl)-hydrazono]-2-oxo-2,3-dihydro-1H-indole-6-carboxylic acid [3-(2-hydroxymethyl-pyrrolidin-1-yl)-propyl]-amide]: the concentration for half-maximal inhibition (IC50) on c-Met [1] came to 6 nM.

These data come from patent publication US7662824B2, “Acylhydrazones as kinase modulators” (Janssen Pharmaceutica NV, priority 2005, dated 2010).
